{
  "source": "patent US12485079B2",
  "about": "“Compositions and methods relating to pigmentation” (Alastin Skincare, Inc., priority 2020, dated 2025)",
  "key": {"[1]": {"tested_on": "carrageenan-induced inflammation", "settings": "rats; cited from earlier work"}, "[2]": {"tested_on": "UV-B-induced hyperpigmentation", "settings": "topical application for 4 weeks, mice skin; cited from earlier work"}, "[3]": {"tested_on": "pigmented reconstructed epidermis", "settings": "cited from earlier work"}, "[4]": {"tested_on": "hTERT-immortalized dermal melanocytes", "settings": "human", "procedure": "(§4) Melanocytes were initially plated in 6-well tissue culture plate (1.5×10^3 cells per well) in melanocyte growth media (Dermal Cell Basal Medium (ATCC® PCS-200-030 supplemented with Melanocyte Growth Kit (ATCC® PCS-200-041). Melanocytes were then expanded into 10 cm tissue culture plates at concentrations recommended by ATCC. The cells appear to fully adhere to the plate/dish while culturing with a webbed morphology. Cells were cultured at 37° C. 5% CO2 incubator.\n(§5) Once the melanocytes were 100% confluent in 6-well plates, the melanocyte growth media was removed and the melanocytes were treated with media containing the above compounds; duplicate wells for each compound/concentration listed above. The duplicate vehicle control wells were fed melanocyte growth media only or melanocyte growth media with DMSO (10 uL per 10 mL melanocyte growth media).\n(§6) The cells were fed the appropriate media for the next 5 days. Each day, the cells were inspected for morphology."}, "[5]": {"tested_on": "hTERT-immortalized dermal melanocytes", "assay": "Melanocyte assay, daily inspection of morphology and survival (Example 6)", "settings": "both concentrations of the compound", "procedure": "as §4, §5, §6"}, "[6]": {"tested_on": "melanocytes (melanin production)", "assay": "In vitro melanocyte comparative analysis via absorbance readings (Example 4)", "assay_type": "cell-based", "settings": "for regulation of melanogenesis (decrease of absorption = decreased melanin formation): Table 8; for Absorbance 405 nm / Absorbance 490 nm / Absorbance 492 nm: melanocyte lysates", "experimental": "Melanocytes were cultured in 6-well plates containing growth media. Once confluent, 2 concentrations of each of the 10 compounds were added to the cells in triplicate wells for 4 days. There were a total of eleven 6-well plates, one for each compound treatment and one for the vehicle control. Absorbance readings were taken on the lysates prepared for each well of the 6-well plates, normalizing for cells counts. […] Additional validation was carried out using MSH addition to media to confirm increased stimulation of melanin production. The following compounds used in this study are seen in Table 7."}, "[7]": {"tested_on": "SCF, LIF, POMC, endothelin genes, PGE2, NGF in keratinocytes", "assay": "Gene expression study (RNA sequencing) in keratinocytes", "assay_type": "cell-based, human", "settings": "24 hours of compound exposure", "experimental": "(§1) Four cell types associated with pigmentation pathways-melanocytes, keratinocytes, fibroblasts and endothelial (HUVEC) cells-were analyzed for gene expression.\n(§2) To simulate the UV stimulatory pigmentation pathway process, melanocytes were pre-treated with PGE2, a normal direct consequence of UV light exposure usually emanating from exposed keratinocytes. After the 48 hour attachment culture, these melanocytes were induced with 10 uM PGE2 in melanocyte media for 24 hrs. The four primary human adult dermal cell lines were cultured and plated in well plates in triplicate and then treated with 11 different compound treatments (plus DMSO control). After 48 hours of attachment culture, the remaining fibroblasts, HUVECs and keratinocytes were treated with the test compounds listed in Table 6.\n(§3) After 24 hours of compound exposure, RNA lysate preparation was carried out and samples were shipped to MedGenome for RNA extraction, library construction and sequencing to 25M paired end 100 bp reads per sample. Library prep and sequencing was completed at MedGenome."}, "melanogenic genes": {"tested_on": "melanogenic genes", "assay": "Cell line melanogenic gene activity testing, overall conclusion", "assay_type": "cell-based, human", "settings": "conclusion over melanocytes, keratinocytes, HUVECs", "experimental": "as §1, §2, §3"}, "MITF": {"tested_on": "MITF", "assay": "In vitro MITF gene expression test in cultured fibroblasts", "assay_type": "cell-based", "settings": "48 hours", "experimental": "Microphthalmia-associated transcription factor (MITF) is a master regulator of pigmentation and melanin transfer and a potential new target for hyperpigmentation and melanoma. In vitro MITF gene expression tests were carried out to ascertain differences between individual peptides (tripeptide-1 and hexapeptide-12) and their combination in terms of MITF downregulation.\nSpecifically, the tests were conducted by culturing fibroblasts and then adding tripeptide-1, hexapeptide-12, or a combination of both. After 48 hours, MITF gene expression was analyzed."}, "[8]": {"tested_on": "melanogenic genes in melanocytes", "assay": "Gene expression study (RNA sequencing) in PGE2-induced melanocytes", "assay_type": "cell-based, human", "experimental": "as §1, §2, §3"}, "[9]": {"tested_on": "PMEL, tyrosinase genes, MC1/4R, EDNRB, MITF, ERK1/2, JNK, AKT1", "assay": "Gene expression studies of Example 5", "assay_type": "cell-based", "from_the_text": "The methods similar to Examples 3-4 were used to measure expression of PMEL, tyrosinase genes, MC1/4R, EDNRB, MITF, ERK1/2, JNK, and ANKT1.\nFIGS. 10A-10D illustrates the expression of PMEL (FIG. 10A), Tyrosinase genes (FIG. 10B), MC1/4R (FIG. 10C), and EDNRB (FIG. 10D) after treatment of endothelial cells with lactoferrin (Lacto), peptide derived from lactoferrin (TCV), hexapeptide-12 (Hex12), tripeptide-1 and hexapeptide-12 (TriHex), hexapeptide-11 (Hex11), tranexamic acid (Tran acid) octapeptide (Octa), phosphatidylserine (phos), Cannabidiol (CBD), and all (total).\nMITF is regulated by phosphorylation. Specifically, the MAPK and Akt pathways are known to phosphorylate MITF at certain sites. FIGS. 12A-12C illustrate the expression of ERK1/2 (MAPK3/MAPK1) (FIG. 12A), JNK (FIG. 12B), AKT1 (FIG. 12C) after treatment of endothelial cells with lactoferrin (Lacto), peptide derived from lactoferrin (TCV), hexapeptide-12 (Hex12), tripeptide-1 and hexapeptide-12 (TriHex), hexapeptide-11 (Hex11), octapeptide (Octa), phosphatidylserine (phos), Cannabidiol (CBD), and all (total)."}, "[10]": {"tested_on": "EDN1 and other melanogenic genes in HUVECs", "assay": "Gene expression study (RNA sequencing) in HUVECs", "assay_type": "cell-based, human", "settings": "24 hours of compound exposure", "experimental": "as §1, §2, §3"}},
  "data": [
    {"molecule": "C=C(C)[C@@H]1CCC(C)=C[C@H]1c1c(O)cc(CCCCC)cc1O", "note": "[CBD, Cannabidiol]", "values": [
      {"measurement": "PGE2, nitric oxide (NO), and malondialdehyde production, together with COX activity", "setting": "[1]", "result": "reduced"}
    ]},
    {"molecule": "O=C(O)c1cc(O)c(O)c(O)c1", "note": "[GA, Gallic acid]", "values": [
      {"measurement": "UV-B-induced hyperpigmentation", "setting": "[2]", "result": "significantly rescued"}
    ]},
    {"molecule": "COc1ccc([C@@H]2CC(=O)c3c(O)cc(O[C@@H]4O[C@H](CO[C@@H]5O[C@@H](C)[C@H](O)[C@@H](O)[C@H]5O)[C@@H](O)[C@H](O)[C@H]4O)cc3O2)cc1O", "note": "[Hesperidin]", "values": [
      {"measurement": "skin lightening effect", "setting": "[3]", "result": "showed skin lightening effect"}
    ]},
    {"molecule": "C/C=C1/[C@H](O[C@@H]2O[C@H](CO)[C@@H](O)[C@H](O)[C@H]2O)OC=C(C(=O)OC)[C@H]1CC(=O)OCCc1ccc(O)c(O)c1", "note": "[Oleuropein]", "values": [
      {"measurement": "time post-initial dosing at which all or nearly all melanocytes were dead", "setting": "[4]", "result": 72, "unit": "h"},
      {"measurement": "time post-initial dosing at which melanocytes started dying", "setting": "[5]", "result": 24, "unit": "h"}
    ]},
    {"molecule": "Oc1ccc2c(c1)OCO2", "note": "[Sesamol]", "values": [
      {"measurement": "regulation of melanogenesis (decrease of absorption = decreased melanin formation)", "setting": "[6]; melanocytes", "result": "Regulation of melanogenesis was also observed"}
    ]},
    {"molecule": "NC[C@H]1CC[C@H](C(=O)O)CC1", "note": "[Tranexamic Acid, Tranexamic acid, reference compound]", "values": [
      {"measurement": "regulation of melanogenesis (decrease of absorption = decreased melanin formation)", "setting": "[6]; melanocytes", "result": "Regulation of melanogenesis was also observed"}
    ]},
    {"molecule": "Hexapeptide-11 [HEX-11]", "values": [
      {"measurement": "melanogenesis activity (FIGS. 6A-6F, FIG. 7)", "setting": "[7]", "result": "active ingredient in melanogenesis activity"},
      {"measurement": "effects on melanogenesis activity", "setting": "melanogenic genes", "result": "significant effects on melanogenesis activity"},
      {"measurement": "regulation of melanogenesis (decrease of absorption = decreased melanin formation)", "setting": "[6]; melanocytes", "result": "Regulation of melanogenesis was observed"}
    ]},
    {"molecule": "Hexapeptide-12 [HEX-12]", "values": [
      {"measurement": "MITF gene expression", "setting": "MITF; 80 ppm Hexapeptide, negative = downregulation", "result": "−1.16"},
      {"measurement": "melanogenic activity (FIGS. 3A-3D)", "setting": "[8]; melanocytes pre-treated with 10 uM PGE2, 24 hours of compound exposure", "result": "particularly dominant in melanogenic activity"},
      {"measurement": "expression of melanogenic genes (FIG. 4, FIG. 5)", "setting": "[8]; melanocytes, 24 hours of compound exposure", "result": "downregulation of melanogenic genes"},
      {"measurement": "effects on melanogenesis activity", "setting": "melanogenic genes", "result": "significant effects on melanogenesis activity"},
      {"measurement": "Absorbance 405 nm", "setting": "[6]; 2.9 ug/mL", "result": 1.32},
      {"measurement": "Absorbance 490 nm", "setting": "[6]; 2.9 ug/mL", "result": 0.94},
      {"measurement": "Absorbance 492 nm", "setting": "[6]; 2.9 ug/mL", "result": 0.64},
      {"measurement": "Absorbance 405 nm", "setting": "[6]; 4.9 ug/mL", "result": 0.96},
      {"measurement": "Absorbance 490 nm", "setting": "[6]; 4.9 ug/mL", "result": 0.64},
      {"measurement": "Absorbance 492 nm", "setting": "[6]; 4.9 ug/mL", "result": 0.46},
      {"measurement": "stimulation of melanin production (model validation)", "setting": "[6]; melanocytes", "result": "decreased stimulation"},
      {"measurement": "regulation of melanogenesis (decrease of absorption = decreased melanin formation)", "setting": "[6]; melanocytes", "result": "Regulation of melanogenesis was observed"},
      {"measurement": "melanogenic activity (expression of PMEL, Tyrosinase genes, MC1/4R, EDNRB; FIGS. 10A-10D)", "setting": "[9]; after treatment of endothelial cells", "result": "robust melanogenic activity"},
      {"measurement": "effects on melanogenic activity (kinase expression linked to decreased MITF expression)", "setting": "[9]; conclusion of Example 5", "result": "significant effects"}
    ]},
    {"molecule": "Phosphatidylserine", "values": [
      {"measurement": "activity on EDN1 and other melanogenic genes (FIG. 9)", "setting": "[10]", "result": "potent activity"},
      {"measurement": "effects on melanogenesis activity", "setting": "melanogenic genes", "result": "significant effects on melanogenesis activity"},
      {"measurement": "regulation of melanogenesis (decrease of absorption = decreased melanin formation)", "setting": "[6]; melanocytes", "result": "Regulation of melanogenesis was observed"}
    ]},
    {"molecule": "Tripeptide-1", "values": [
      {"measurement": "MITF gene expression", "setting": "MITF; 120 xppm Tripeptide, positive = upregulation", "result": 1.72},
      {"measurement": "MITF gene expression", "setting": "MITF; 120 xppm Tripeptide, positive = upregulation, listed as tripeptide-1", "result": "+1.72"}
    ]}
  ]
}
